Test results: patent US20240148820A1 (priority 2021, published 2024)
Values after ≈ are worked out from the molar mass of the structure shown. “Also recorded” adds a separate entry of the source. Where a SMILES comes first, the peptide text is derived from it. Where no end group is shown, it is not given here.

Experiments:
[1] = test system: A(H1N1) virus; format: cell-based; settings: virus pretreated 45 min, attached to MDCK cells 1 h
[2] = biological target: Spike of SARS-CoV-2 / ACE2-human (Severe acute respiratory syndrome coronavirus 2, UniProt P0DTC2); format: cell-based, SARS-CoV-2 / human
[3] = test system: A(H1N1) virus
[4] = test system: A(H1N1) virus; format: cell-based, A/Hong Kong/415742M/2009(H1N1)
[5] = test system: turkey red blood cells; settings: normalized to Triton X-100
[6] = test system: A(H3N2)
[7] = test system: FluB
[8] = test system: MDCK cells; test: Cytotoxicity assay (MTT)
[9] = test system: SARS-CoV-2
[10] = biological target: S protein of SARS-CoV-2 (Severe acute respiratory syndrome coronavirus 2, UniProt P0DTC2); format: binding
[11] = test system: SARS-CoV; set-up: species or system BALB/c mice; settings: in vivo
[12] = test system: SARS-CoV-2; format: cell-based, human
[13] = test system: coronavirus or influenza virus; settings: oral inoculation or intraperitoneal injection (refs 29, 30, 39, 41); cited from earlier work
[14] = test system: SARS-CoV-2; settings: cited from earlier work
[15] = test system: SARS-CoV-2; format: cell-based
[16] = test system: A(H1N1) virus; set-up: species or system BALB/c mice; settings: in vivo
[17] = test system: SARS-CoV-2; settings: in vivo

Molecule: Triton X-100
- viral attachment to cells (RNA copies of attached virus) [1]: significantly reduced

Molecule: CO/C1=C\C(C)=C\[C@@H](C)[C@@H](O)[C@@H](C)C/C(C)=C/C=C/[C@H](OC)[C@@H]([C@@H](C)[C@@H](O)[C@H](C)[C@@]2(O)C[C@@H](O)[C@H](C)[C@@H](C(C)C)O2)OC1=O [bafilomycin A1]
- spike-ACE2 mediated cell fusion [2]: fusion inhibition

Molecule: CC[C@H](C)[C@H](NC(=O)[C@H](C)NC(=O)CNC(=O)[C@H](CC(N)=O)NC(=O)[C@H](CO)NC(=O)[C@H](Cc1ccccc1)NC(=O)[C@H](CCCNC(=N)N)NC(=O)[C@H](Cc1c[nH]cn1)NC(=O)[C@H](CS)NC(=O)[C@H](CCC(N)=O)NC(=O)[C@H](CO)NC(=O)[C@H](CC(=O)O)NC(=O)[C@H](Cc1c[nH]c2ccccc12)NC(=O)[C@H](CCCNC(=N)N)NC(=O)CNC(=O)[C@H](CC(N)=O)NC(=O)[C@@H](NC(=O)[C@@H](N)Cc1ccccc1)[C@@H](C)CC)C(=O)N[C@@H](C)C(=O)N[C@@H](CS)C(=O)N[C@@H](C)C(=O)O [U4] (H-FINGRWDSQCHRFSNGAIACA-OH; N-terminus and C-terminus assumed)
- IC50 against A(H1N1) virus [3]: 6.6 µg/mL (≈ 2.8 µM)
- antiviral activity against A(H1N1) virus compared with Urumin [4]: more potent antiviral activity than that of Urumin

Molecule: RGAHIKGRWKSRCHRF [P16, RGAHIKGRWKSRCHRF]
- hemolysis of turkey red blood cells [5]: no significant hemolysis
- IC50 against A(H3N2) [6]: 1.6 µg/mL
- IC50 against FluB [7]: 7.1 µg/mL
- cytotoxicity on MDCK cells ([8]; MDCK cells treated by 1 mg ml^−1 of P16): no significant cytotoxicity
- TC50 ([8]; MDCK cells, MTT, 24 h): > 1000 µg/mL
- IC50 against A(H1N1) virus [3]: 3.9 µg/mL
- IC50 for SARS-CoV-2 B.1.1.63 [9]: 3.0 µg/mL
- IC50 for SARS-CoV-2 B.1.617.2 [9]: 3.9 µg/mL
- IC50 for SARS-CoV-2 HKU001a [9]: 2.9 µg/mL

Molecule: IPLRGAFINGRWDSQCHRFS [U5]
- binding to S protein of SARS-CoV-2 [10]: bound to S protein
- effect of U5 on P16 binding to S protein [10]: reduced P16 binding to S protein; also recorded: blocked P16 binding to S protein
- spike-ACE2 mediated cell fusion [2]: did not inhibit spike-ACE2 mediated fusion
- IC50 against A(H1N1) virus [3]: 12.9 µg/mL
- antiviral activity against A(H1N1) virus compared with Urumin [4]: more potent antiviral activity than that of Urumin

Molecule: CCN(CC)CCCC(C)Nc1ccnc2cc(Cl)ccc12 (stereo not drawn) [chloroquine]
- SARS-CoV replication in mouse lungs, atomization inhalation [11]: could inhibit; also recorded: inhibited
- 1-day prophylactic activity against SARS-CoV replication ([11]; mouse): could not provide 1-day prophylactic activity
- inhibition of SARS-CoV replication, one dose before viral inoculation ([11]; mouse): 3-5 fold
- SARS-CoV-2 replication in ex vivo human lung tissues [12]: significantly inhibited SARS-CoV-2 replication
- coronavirus or influenza virus replication in vivo after systemic administration [13]: could not inhibit coronavirus or influenza virus replication in vivo
- SARS-CoV-2 replication in Calu-3 cells (reference 24) [14]: cannot inhibit SARS-CoV-2 replication
- antiviral activity when cells treated before or after infection [15]: significantly less antiviral activity
- viral replication when treated during viral infection [15]: effectively inhibit viral replication; also recorded: more effectively inhibited viral replication
- A(H1N1) virus replication in mouse lungs (in words) [16]: inhibited A(H1N1) virus replication
- A(H1N1) virus replication in mouse lungs, atomization inhalation [16]: could inhibit; also recorded: inhibited
- 1-day prophylactic activity against A(H1N1) virus replication ([16]; mouse): could not provide 1-day prophylactic activity
- inhibition of A(H1N1) virus replication in mice ([16]; mouse): 3.5 fold
- inhibition of A(H1N1) virus replication, one dose before viral inoculation ([16]; mouse): 3-5 fold
- SARS-CoV-2 replication in hamster lungs (in words) [17]: inhibited SARS-CoV-2 replication
- inhibition of SARS-CoV-2 replication in hamster lungs [17]: 2 fold
